Assay results: US20260159512A1, “BCAT2 INHIBITORS” (AGIOS PHARMACEUTICALS, INC., priority 2021, published 2026)

Key:
BCAT2 [1] = biological target: T1, BCAT2 (Homo sapiens, UniProt O15382); assay: BCAT2 in vitro enzyme inhibition assay (resazurin/diaphorase-coupled fluorescence); type: biochemical; settings: average where tested multiple times
T1 sequence (O15382 28-392): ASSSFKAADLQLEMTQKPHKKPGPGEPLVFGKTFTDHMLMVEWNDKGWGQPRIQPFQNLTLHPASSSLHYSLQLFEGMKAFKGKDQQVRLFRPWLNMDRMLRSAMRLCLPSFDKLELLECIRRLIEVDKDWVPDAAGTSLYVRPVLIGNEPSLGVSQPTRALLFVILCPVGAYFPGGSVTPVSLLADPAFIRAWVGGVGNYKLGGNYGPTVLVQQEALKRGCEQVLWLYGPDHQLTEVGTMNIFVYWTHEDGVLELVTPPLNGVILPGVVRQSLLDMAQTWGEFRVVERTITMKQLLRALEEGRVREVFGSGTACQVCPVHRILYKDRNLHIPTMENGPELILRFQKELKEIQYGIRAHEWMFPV
Method: BCAT2 In Vitro Enzyme Inhibition Assay
1.67× hBCAT2 Enzyme Mix: 0.33 μg/mL hBCAT2, 1× Buffer
2.5× Substrate Mix: 460 μM L-leucine, 420 μM α-KetoGlutarate, 10 U/mL glutamate dehydrogenase, 10 mM NAD, 30 μg/mL diaphorase, 20 μm Resazurin
BCAT2 enzyme stock solution was diluted to prepare a 1.67× hBCAT2 Enzyme Mix. 1 μL of test compound was first added to the reaction wells followed by 30 μL of 1.67× hBCAT2 Enzyme Mix and incubated at room temperature (25° C.) for one hour. Meanwhile the Substrate Mix was prepared. The reaction was initiated by the addition of 20 μL of the 2.5× Substrate Mix, bringing the final reaction mix of all components to 1×. Reactions were quenched after one hour by the addition of 25 μL of 6% SDS and reaction progress was measured via fluorescence read (Ex 540/Em 590).
Test Compound Preparation:
Test compounds were prepared at 50× final concentration in DMSO, 1 to 3 dilutions were made for 10 points. The compounds were added to the assay as a 1 to 50 dilution (1 μL in 50 μL) to yield a top assay final concentration of 100 μM, decreasing 3-fold for 10 points. Each compound dilution series test also included an assay max (1 μL DMSO Added in lieu of compound, Full Reaction Components Included) and Min (1 μL DMSO Added in lieu of compound, 30 μl of 1.67× hBCAT2 Enzyme Mix replated by 30 μL of 1× Buffer). All tests were performed in technical duplicate.
Where a compound was tested multiple times, the average value of the tests is reported.

BCAT2 [2] = biological target: T1, BCAT2; assay: BCAT2 in vitro cell inhibition using engineered A549 cells (KMV cell assay, 13C6-KMV by LC-MS/MS); type: cell-based; parameters: The result was an engineered A549 cell line that expressed endogenous BCAT2; endogenous in cells; host or cells: A549 cells with MUT and BCAT1 knocked out by CRISPR/CAS9; key to BCAT2 Cell Inhibition: A: less than or equal to 0.100 μM; B: greater than 0.100 and less than or equal to 0.500 μM; C: greater than 0.500 and less than or equal to 1.000 μM; d: greater than 1.000 μM; E: no fit; settings: average where tested multiple times

In the case of CO[C@@H]1C[C@H](NC(=O)c2ncc(Cl)s2)C[C@H](n2c(CC(C)C)nc3cnc(-c4nc[nH]n4)cc32)C1 (stereo in doubt) [Example 431, 5-chloro-N-((1R,3S,5R)-3-(2-isobutyl-6-(1H-1,2,4-triazol-3-yl)-1H-imidazo[4,5-c]pyridin-1-yl)-5-methoxycyclohexyl)thiazole-2-carboxamide], the IC50 (BCAT2 [1]) is reported as 500 to 1000 nM and the IC50 (BCAT2 [2]) is reported as > 1000 nM.

O=C(O)CCc1ccccc1-c1nc2cnc(-n3nccn3)cc2n1[C@@H]1CCC[C@H](NC(=O)c2ncc(C(F)F)s2)C1 [Example 100, 3-(2-(1-((1R,3S)-3-(5-(difluoromethyl)thiazole-2-carboxamido)cyclohexyl)-6-(2H-1,2,3-triazol-2-yl)-1H-imidazo[4,5-c]pyridin-2-yl)phenyl)propanoic acid] was tested, and the IC50 (BCAT2 [1]) was 500 to 1000 nM and the “BCAT2 Cell Inhibition” value (BCAT2 [2]) was “E”.

For O=C(N[C@@H]1C[C@@H](O)C[C@H](n2c(-c3ccccc3F)nc3cnccc32)C1)c1ncc(Cl)s1 [Example 271, 5-chloro-N-((1S,3R,5R)-3-(2-(2-fluorophenyl)-1H-imidazo[4,5-c]pyridin-1-yl)-5-hydroxycyclohexyl)thiazole-2-carboxamide], the IC50 (BCAT2 [1]) was > 1000 nM and the “BCAT2 Cell Inhibition” value (BCAT2 [2]) was “E”.

In the case of Cc1cnn(-c2cc3c(cn2)nc(CC(C)C)n3[C@H]2CCC[C@@H](NC(=O)c3ncc(Cl)s3)[C@@H]2O)n1 [Example 244, 5-chloro-N-((1R,2S,3S)-2-hydroxy-3-(2-isobutyl-6-(4-methyl-2H-1,2,3-triazol-2-yl)-1H-imidazo[4,5-c]pyridin-1-yl)cyclohexyl)thiazole-2-carboxamide], the IC50 (BCAT2 [1]) is reported as > 1000 nM and the “BCAT2 Cell Inhibition” value (BCAT2 [2]) is reported as “E”.

CO[C@@H]1C[C@@H](NC(=O)c2ncc(Cl)s2)C[C@@H](n2c(CC(C)C)nc3cnc(-c4ncc(C)o4)cc32)C1 (single isomer, unassigned) [Example 428] was tested, and the IC50 (BCAT2 [1]) was > 1000 nM and the “BCAT2 Cell Inhibition” value (BCAT2 [2]) was “E”.

With COC(=O)N[C@@H](c1nc2cnc(-c3nc[nH]n3)cc2n1[C@@H]1CCC[C@H](NC(=O)c2ncc(Cl)s2)C1)C(C)C [Example 371, methyl ((R)-1-(1-((1R,3S)-3-(5-chlorothiazole-2-carboxamido)cyclohexyl)-6-(1H-1,2,4-triazol-3-yl)-1H-imidazo[4,5-c]pyridin-2-yl)-2-methylpropyl)carbamate] the IC50 (BCAT2 [1]) was > 1000 nM and the “BCAT2 Cell Inhibition” value (BCAT2 [2]) was “E”.

In the case of CC(C)Cc1nc2cnc(-c3nc[nH]n3)cc2n1[C@H]1C[C@@H](NC(=O)c2ccc(Cl)s2)CC(F)(F)C1 (stereo in doubt) [Example 453, 5-chloro-N-((1R,5S)-3,3-difluoro-5-(2-isobutyl-6-(1H-1,2,4-triazol-3-yl)-1H-imidazo[4,5-c]pyridin-1-yl)cyclohexyl)thiophene-2-carboxamide], the IC50 (BCAT2 [1]) is reported as 100 to 500 nM.

For O=C(NC1COCC(n2c(-c3ccccn3)nc3cnc(-n4ccnn4)cc32)C1)c1ncc(C(F)F)s1 (single isomer, unassigned) [Example 147, 5-(difluoromethyl)-N-(5-(2-(pyridin-2-yl)-6-(1H-1,2,3-triazol-1-yl)-1H-imidazo[4,5-c]pyridin-1-yl)tetrahydro-2H-pyran-3-yl)thiazole-2-carboxamide], the IC50 (BCAT2 [1]) was > 1000 nM.

CC(C)Cc1nc2cnc(-c3ncc[nH]3)cc2n1[C@@H]1CCC[C@H](NC(=O)c2ncc(Cl)s2)C1 [Example 361, N-((1S,3R)-3-(6-(1H-imidazol-2-yl)-2-isobutyl-1H-imidazo[4,5-c]pyridin-1-yl)cyclohexyl)-5-chlorothiazole-2-carboxamide] was tested, and the IC50 (BCAT2 [1]) was ≤ 100 nM.

For CC(=O)N1CC(NC(=O)c2ccc(Br)s2)CC(n2c(-c3ccccn3)nc3ccc(-c4nnco4)cc32)C1 (stereo not shown) [Example 285, N-(5-(6-(1,3,4-oxadiazol-2-yl)-2-(pyridin-2-yl)-1H-benzo[d]imidazol-1-yl)-1-acetylpiperidin-3-yl)-5-bromothiophene-2-carboxamide], the IC50 (BCAT2 [1]) was ≤ 100 nM.

With CC(C)Cc1nc2cnc(-c3ccn(C(F)F)n3)cc2n1[C@H]1C[C@H](O)C[C@@H](NC(=O)c2ncc(Cl)s2)C1 (single isomer, unassigned) [Example 212] the IC50 (BCAT2 [1]) was > 1000 nM.

CO[C@@H]1C[C@@H](NC(=O)c2ccc(Cl)s2)C[C@@H](n2c(CC(C)C)nc3cnc(-c4ncccn4)cc32)C1 (single isomer, unassigned) [Example 438] showed an IC50 (BCAT2 [1]) of 100 to 500 nM.

For CC(C)Cc1nc2cnc(-n3nccn3)cc2n1[C@H]1CCC[C@@H](NC(=O)c2ncc(Cl)s2)[C@@H]1O [Example 228, 5-chloro-N-((1R,2S,3S)-2-hydroxy-3-(2-isobutyl-6-(2H-1,2,3-triazol-2-yl)-1H-imidazo[4,5-c]pyridin-1-yl)cyclohexyl)thiazole-2-carboxamide], the IC50 (BCAT2 [1]) was > 1000 nM.

Work on CO[C@H]1C[C@H](NC(=O)c2ncc(Cl)s2)C[C@H](n2c(-c3ccccc3C#N)nc3cnc(-c4nc[nH]n4)cc32)C1 (stereo in doubt) [Example 445, 5-chloro-N-((1R,3S,5S)-3-(2-(2-cyanophenyl)-6-(1H-1,2,4-triazol-3-yl)-1H-imidazo[4,5-c]pyridin-1-yl)-5-methoxycyclohexyl)thiazole-2-carboxamide] yielded an IC50 (BCAT2 [1]) of 100 to 500 nM.

For CO[C@H]1C[C@H](NC(=O)c2ncc(Cl)s2)C[C@H](n2c(CC(C)C)nc3cnc(-c4ccccn4)cc32)C1 (stereo in doubt) [Example 425, 5-chloro-N-((1R,3S,5S)-3-(2-isobutyl-6-(pyridin-2-yl)-1H-imidazo[4,5-c]pyridin-1-yl)-5-methoxycyclohexyl)thiazole-2-carboxamide], the IC50 (BCAT2 [1]) was > 1000 nM.

In the case of C[C@H]1CCCN1c1cc2c(cn1)nc(-c1ccccc1F)n2[C@@H]1CCC[C@H](NC(=O)c2ncc(Cl)s2)C1 [Example 194, 5-chloro-N-((1S,3R)-3-(2-(2-fluorophenyl)-6-((S)-2-methylpyrrolidin-1-yl)-1H-imidazo[4,5-c]pyridin-1-yl)cyclohexyl)thiazole-2-carboxamide], the IC50 (BCAT2 [1]) is reported as 500 to 1000 nM.

CC(C)[C@@H](N)c1nc2cnc(-c3ccccn3)cc2n1[C@@H]1CCC[C@H](NC(=O)c2ncc(Cl)s2)C1 [Example 167, N-((1S,3R)-3-(2-((R)-1-amino-2-methylpropyl)-6-(pyridin-2-yl)-1H-imidazo[4,5-c]pyridin-1-yl)cyclohexyl)-5-chlorothiazole-2-carboxamide] showed an IC50 (BCAT2 [1]) of 100 to 500 nM.

With CC(C)Cc1nc2cnc(-c3ccn(C)n3)cc2n1[C@H]1CCC[C@@H](NC(=O)c2ncc(Cl)s2)[C@@H]1O [Example 224, 5-chloro-N-((1R,2S,3S)-2-hydroxy-3-(2-isobutyl-6-(1-methyl-1H-pyrazol-3-yl)-1H-imidazo[4,5-c]pyridin-1-yl)cyclohexyl)thiazole-2-carboxamide] the IC50 (BCAT2 [1]) was > 1000 nM.

With CO[C@@H]1C[C@@H](NC(=O)c2ncc(Cl)s2)C[C@@H](n2c(CC(C)C)nc3cnc(-c4nc(C)co4)cc32)C1 [Example 410, 5-chloro-N-((1S,3R,5R)-3-(2-isobutyl-6-(4-methyloxazol-2-yl)-1H-imidazo[4,5-c]pyridin-1-yl)-5-methoxycyclohexyl)thiazole-2-carboxamide] the IC50 (BCAT2 [1]) was > 1000 nM.

For O=C(N[C@H]1CCC[C@@H](n2c(C3CNCCO3)nc3cnc(-c4nc[nH]n4)cc32)C1)c1ncc(Cl)s1 (stereo partly drawn) [Example 174, 5-chloro-N-((1S,3R)-3-(2-(morpholin-2-yl)-6-(1H-1,2,4-triazol-3-yl)-1H-imidazo[4,5-c]pyridin-1-yl)cyclohexyl)thiazole-2-carboxamide], the IC50 (BCAT2 [1]) was > 1000 nM.

For CC(=O)Cc1nc2cnc(-c3ccccn3)cc2n1[C@@H]1CCC[C@H](NC(=O)c2ncc(Cl)s2)C1 [Example 362, 5-chloro-N-((1S,3R)-3-(2-(2-oxopropyl)-6-(pyridin-2-yl)-1H-imidazo[4,5-c]pyridin-1-yl)cyclohexyl)thiazole-2-carboxamide], the IC50 (BCAT2 [1]) was > 1000 nM.

CO[C@H]1C[C@H](NC(=O)c2ncc(Cl)s2)C[C@H](n2c(-c3ccccc3F)nc3cnc(-n4nccn4)cc32)C1 (stereo in doubt) [Example 423, 5-chloro-N-((1R,3S,5S)-3-(2-(2-fluorophenyl)-6-(2H-1,2,3-triazol-2-yl)-1H-imidazo[4,5-c]pyridin-1-yl)-5-methoxycyclohexyl)thiazole-2-carboxamide] gave an IC50 (BCAT2 [1]) of 500 to 1000 nM.
